Where two headings read alike, the source gives them in different places.
What was measured:
Assay type in all cases: binding
[1] = molecular target: T1, HeLa cell extract proteins (Homo sapiens, UniProt Q6P2E9)
T1 construct: endogenous in cells; host or cells: HeLa cell extract
T1 sequence (Q6P2E9 1-1401): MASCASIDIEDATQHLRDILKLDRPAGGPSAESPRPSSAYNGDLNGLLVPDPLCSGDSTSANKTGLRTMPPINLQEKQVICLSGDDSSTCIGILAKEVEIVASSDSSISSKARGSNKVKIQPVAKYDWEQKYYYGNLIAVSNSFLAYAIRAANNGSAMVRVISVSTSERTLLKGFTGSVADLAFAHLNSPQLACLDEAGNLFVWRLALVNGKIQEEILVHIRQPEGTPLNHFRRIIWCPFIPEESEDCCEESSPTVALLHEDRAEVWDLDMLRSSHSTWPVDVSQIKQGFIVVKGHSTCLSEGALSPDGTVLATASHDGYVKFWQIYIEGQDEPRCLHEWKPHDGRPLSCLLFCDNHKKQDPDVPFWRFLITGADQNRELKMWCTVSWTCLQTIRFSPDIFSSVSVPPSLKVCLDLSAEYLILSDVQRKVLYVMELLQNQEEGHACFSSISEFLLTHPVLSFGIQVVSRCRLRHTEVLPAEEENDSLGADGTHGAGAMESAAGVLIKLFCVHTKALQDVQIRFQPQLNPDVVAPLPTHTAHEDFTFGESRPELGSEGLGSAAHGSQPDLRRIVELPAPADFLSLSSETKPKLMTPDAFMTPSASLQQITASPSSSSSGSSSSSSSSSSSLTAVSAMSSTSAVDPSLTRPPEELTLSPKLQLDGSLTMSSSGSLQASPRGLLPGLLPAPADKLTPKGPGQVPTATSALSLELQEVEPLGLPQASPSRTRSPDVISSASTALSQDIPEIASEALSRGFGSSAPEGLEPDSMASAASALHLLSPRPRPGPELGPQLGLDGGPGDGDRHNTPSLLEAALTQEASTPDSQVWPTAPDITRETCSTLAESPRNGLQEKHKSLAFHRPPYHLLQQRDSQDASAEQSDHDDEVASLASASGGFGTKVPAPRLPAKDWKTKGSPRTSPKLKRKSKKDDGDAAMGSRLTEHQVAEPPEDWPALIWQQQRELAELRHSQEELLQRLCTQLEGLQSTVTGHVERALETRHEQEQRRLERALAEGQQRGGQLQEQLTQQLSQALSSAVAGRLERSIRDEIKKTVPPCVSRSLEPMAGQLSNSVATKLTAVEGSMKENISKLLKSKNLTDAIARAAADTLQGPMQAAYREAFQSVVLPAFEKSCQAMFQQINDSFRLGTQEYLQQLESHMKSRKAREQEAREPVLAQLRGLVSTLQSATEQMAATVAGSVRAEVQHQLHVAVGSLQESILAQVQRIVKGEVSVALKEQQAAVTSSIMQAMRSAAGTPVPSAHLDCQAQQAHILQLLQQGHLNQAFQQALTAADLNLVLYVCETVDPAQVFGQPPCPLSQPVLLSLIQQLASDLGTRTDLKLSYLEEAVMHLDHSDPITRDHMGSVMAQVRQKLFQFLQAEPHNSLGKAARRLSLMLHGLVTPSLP

[2] = molecular target: T2, HeLa cell extract proteins (Homo sapiens, UniProt Q2TB90)
T2 construct: endogenous in cells; host or cells: HeLa cell extract
T2 sequence (Q2TB90 1-917): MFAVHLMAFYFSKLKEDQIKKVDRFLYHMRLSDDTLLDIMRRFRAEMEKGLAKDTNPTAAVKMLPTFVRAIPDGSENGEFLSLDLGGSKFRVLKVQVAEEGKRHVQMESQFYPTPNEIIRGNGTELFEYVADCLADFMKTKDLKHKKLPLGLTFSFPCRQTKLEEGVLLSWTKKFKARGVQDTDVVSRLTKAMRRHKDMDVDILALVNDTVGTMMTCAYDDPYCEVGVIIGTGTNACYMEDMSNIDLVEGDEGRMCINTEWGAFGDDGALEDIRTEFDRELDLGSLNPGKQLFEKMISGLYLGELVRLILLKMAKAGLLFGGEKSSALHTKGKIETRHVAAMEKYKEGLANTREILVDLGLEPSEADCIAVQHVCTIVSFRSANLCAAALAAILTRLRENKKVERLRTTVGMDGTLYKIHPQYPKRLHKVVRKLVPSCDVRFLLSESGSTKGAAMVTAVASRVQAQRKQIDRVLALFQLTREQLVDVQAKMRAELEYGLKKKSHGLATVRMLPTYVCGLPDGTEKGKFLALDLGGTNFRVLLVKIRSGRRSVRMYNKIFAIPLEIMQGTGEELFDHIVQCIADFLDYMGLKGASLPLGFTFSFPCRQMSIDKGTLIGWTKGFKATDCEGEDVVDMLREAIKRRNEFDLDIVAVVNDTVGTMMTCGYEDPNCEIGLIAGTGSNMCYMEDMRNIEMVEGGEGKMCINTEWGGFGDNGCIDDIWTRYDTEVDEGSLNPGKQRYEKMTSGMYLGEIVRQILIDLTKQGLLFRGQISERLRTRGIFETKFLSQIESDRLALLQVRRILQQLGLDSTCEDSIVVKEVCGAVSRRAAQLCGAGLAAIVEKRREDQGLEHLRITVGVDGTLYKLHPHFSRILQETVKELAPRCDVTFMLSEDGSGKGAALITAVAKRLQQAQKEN

[3] = molecular target: T3, HeLa cell extract proteins (Homo sapiens, UniProt Q15645)
T3 construct: endogenous in cells; host or cells: HeLa cell extract
T3 sequence (Q15645 1-432): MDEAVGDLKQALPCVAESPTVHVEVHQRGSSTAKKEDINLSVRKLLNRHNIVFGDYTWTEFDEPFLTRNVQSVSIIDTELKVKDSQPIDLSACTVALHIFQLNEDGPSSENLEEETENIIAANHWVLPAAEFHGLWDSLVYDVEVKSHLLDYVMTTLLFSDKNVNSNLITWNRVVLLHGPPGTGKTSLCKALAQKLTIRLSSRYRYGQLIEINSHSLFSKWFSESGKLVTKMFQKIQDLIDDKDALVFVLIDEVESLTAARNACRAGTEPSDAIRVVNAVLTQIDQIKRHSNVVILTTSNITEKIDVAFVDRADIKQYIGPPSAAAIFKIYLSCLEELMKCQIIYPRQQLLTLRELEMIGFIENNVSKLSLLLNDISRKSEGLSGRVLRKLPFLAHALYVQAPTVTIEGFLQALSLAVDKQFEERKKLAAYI

[4] = molecular target: T4, HeLa cell extract proteins (Homo sapiens, UniProt P51858)
T4 construct: endogenous in cells; host or cells: HeLa cell extract
T4 sequence (P51858 whole entry): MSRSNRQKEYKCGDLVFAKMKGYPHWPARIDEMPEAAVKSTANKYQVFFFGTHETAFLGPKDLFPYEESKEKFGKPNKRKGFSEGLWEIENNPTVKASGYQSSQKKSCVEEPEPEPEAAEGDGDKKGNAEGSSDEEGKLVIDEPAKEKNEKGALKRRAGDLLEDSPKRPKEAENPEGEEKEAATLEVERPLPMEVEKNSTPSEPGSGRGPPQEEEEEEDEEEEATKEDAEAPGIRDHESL

Structure (SMILES) | fold changes relative to vehicle control ([1]; HeLa, protein EDC4) | fold changes relative to vehicle control ([2]; captured protein HKDC1, HeLa) | fold changes relative to vehicle control ([3]; HeLa, protein TRIP13) | fold changes relative to vehicle control ([4]; protein HDGF, HeLa) | fold changes relative to vehicle control ([2]; HeLa, protein HKDC1) | fold changes relative to vehicle control ([4]; HeLa, protein HDGF) | fold changes relative to vehicle control [1] | fold changes relative to vehicle control [2] | fold changes relative to vehicle control [3] | fold changes relative to vehicle control [4]
Nc1nc2cccc(-c3ccccc3)c2n1Cc1ccc(Cl)c(Cl)c1 [compound 3] | 0.98 | 1.05 | 1.24 | 0.9 | – | – | – | – | – | –
NCCOCCOCC(=O)Nc1nc2ncc(CNc3ccc(C(=O)NC(CCC(=O)O)C(=O)O)cc3)nc2c(=O)[nH]1 (stereo not shown) [compound 6] | 1.03 | – | 0.94 | – | 1.06 | 1.31 | – | – | – | –
Nc1nc2[nH]cc(CCc3ccc(C(=O)N[C@@H](CCC(=O)O)C(=O)O)cc3)c2c(=O)[nH]1 [PTX, pemetrexed] | – | – | – | – | – | – | 1.02 | 0.89 | 0.88 | 1.21
Nc1nc2c(c(=O)[nH]1)N(C=O)C(CNc1ccc(C(=O)N[C@@H](CCC(=O)O)C(=O)O)cc1)CN2 (stereo partly shown) [LEU, leucovorin] | 1.03 | – | 0.92 | – | 0.89 | 1.06 | – | – | – | –
CCCCCCOc1ccc(Cc2cnc(N)nc2N)cc1 [compound 1] | 0.87 | 1 | 0.96 | 1.26 | – | – | – | – | – | –
NCCCNc1ccc(C(=O)NC(CCC(=O)O)C(=O)O)cc1 (stereo not shown) [compound 7] | 0.97 | – | 1.09 | – | 1.09 | 0.97 | – | – | – | –
CCCCCCOc1cccc(Cc2cnc(N)nc2N)c1 [compound 2] | 1.12 | 1.1 | 1.17 | 2.45 | – | – | – | – | – | –

— publication PMC6199744, “Development of Chemical Proteomics for the Folateome and Analysis of the Kinetoplastid Folateome” (ACS Infectious Diseases, 2018)
